Non-standard residues stand in square brackets, D forms with d. pGlu = O=C1CC[C@@H](C(=O)O)N1
What was measured:
Assay type in all cases: in vivo, human
[1] = test system: herpes zoster pain; assay: Example 6: analgesic effect on viral infection, topical
Source text: A subject had herpes zoster on a temporal branch of the tri-geminal nerve with severe clinical pain involving the areas of left temporal, left forehead, left scalp, left neck, and left ear canal. Touching the left anterior scalp hair provoked severe pain.
The subject topically administered an anhydrous composition containing 0.5% (w/v) N-Ac-Tyr-Pro-Phe-Phe-NH2 (SEQ ID NO: 23) in EP73, formulated as described in Example 2, by applying a few drops to wet the skin surface. […] The pain relief lasted for up to 1 hour. Multiple repeated topical applications of the anhydrous composition containing 0.5% (w/v) N-Ac-Tyr-Pro-Phe-Phe-NH2 (SEQ ID NO: 23) in EP73 gave the same analgesic result with 4+ relief of pain according to clinical evaluation, and also for longer periods of up to 6 hours.

[2] = test system: sub-acute pain of left wrist; assay: Example 10: analgesic effect on wrist pain, topical
Procedure: A subject had sub-acute pain of their left wrist, which they twisted while lifting a child.
The subject topically applied an anhydrous composition containing 0.7% (w/v) N-Ac-Tyr-Pro-Phe-Phe-NH2 (SEQ ID NO: 23) in EP73, formulated as described in Example 2, before bedtime. The next morning, about 70% relief of pain was observed. The subject topically re-applied the same composition under plastic film wrap for 2 hours, and the wrist pain was completely eradicated. The subject was free of any wrist pain and the improvement was 100% as judged by clinical evaluation.

[3] = test system: knee and lower back pain from osteoarthritis; assay: Example 14: analgesic effect on osteoarthritic knees and lower back, topical; conditions: 1% (w/v) in WEP442, about 60 ml to whole body
Procedure: A subject had severe knee pain for many years and lower back pain for approximately one year from osteoarthritis, and in both cases, the pain was partially relieved by oral opiates. One day before bedtime, the subject took a low dose of an opiate, but the next morning, they still developed substantial pain in the knees and moderate pain in the lower back.
The subject topically applied approximately 60 ml of a solution composition containing 1% (w/v) N-Ac-Tyr-Pro-Phe-Phe-NH2 (SEQ ID NO: 23) in WEP442 to the whole body, excluding only the scalp, face and soles. […] This lowered degree of pain was maintained for about 7 hours.

[4] = test system: sprain of the left ankle; assay: Example 21: analgesic effect on ankle sprain, topical
Source text: A subject, suffered a sprain of the left ankle after stepping on a stone while hiking, twisting the ankle inwardly. Ten days later, after wearing an elastic ankle support daily, pain from the injury persisted. The subject topically applied an anhydrous composition containing 0.7% (w/v) N-Ac-Tyr-Pro-Phe-Phe-NH2 (SEQ ID NO: 23) in EP73, formulated as described in Example 2. […] Upon arising the next morning, the subject experienced mild ankle pain, whereupon the composition was again applied. […] The subject was discomfort free thereafter.

[5] = test system: jaw pain after tooth extraction; assay: Example 28: analgesic effect on dental extraction pain, topical
Procedure: A subject had substantial pain in the left mandibular jaw that started about 3 hours after extraction of a left mandibular molar tooth. […] Only negligible discomfort was perceptible thereafter.

[6] = test system: pain at injection sites; assay: Example 39: analgesic effect on pain at site of subcutaneous injection of hyaluronic acid, topical; conditions: 1% (w/v) in WEP442, topical
Source text: A subject, experienced substantial pain in the zygomatic-facial areas, sites injected subcutaneously with a hyaluronic acid product (Restylane) six hours earlier for the cosmetic purpose of plumping up the skin.

[7] = test system: severe nauseating headache; assay: Example 60: analgesic effect on headache due to inhalation of exhaust fumes, topical; conditions: 0.5% (w/v) in WEP442, topical
Source text: A construction worker, suffered a severe nauseating headache on a day when, for about an hour, they were exposed to exhaust fumes from a gasoline motor driven dust blower early in the day. The headache persisted all day and into the evening.

[8] = test system: osteoarthritis of the fingers and wrists; assay: Example 82: pain and flexibility of fingers and wrists affected by osteoarthritis, topical
Source text: A subject had osteoarthritis of the fingers and wrists for about 10 years, with substantial worsening over the past several months. Symptoms included painful finger joints and wrists. The pain was much worsened by flexion, so that making a first was too painful to try. Moreover, complete flexion had not been possible because of actual physical limitations. Anatomical signs of their disorder, e.g., enlarged finger joints, were conspicuous in their case. […] Additionally, complete flexion of the fingers and making of a tight first could be done without any discomfort.

[9] = test system: osteoarthritis of the knees; assay: Example 94: osteoarthritic knees, intra-articular injection of N-Ac derivative; conditions: approximately 1% (w/v) in water, 1 ml per knee intra-articular
Procedure: A subject with osteoarthritis of the knees that progressively worsened over the years, evaluated the analgesic effectiveness of many topical preparations of tetrapeptide derivatives of the invention on numerous occasion. After such experiences, they decided to self-inject […] knees with a sterile aqueous preparation of N-Ac-Tyr-Pro-Phe-Phe-NH2, (SEQ ID NO: 23) at a concentration of approximately 1% (w/v) in water. Via the sub-patellar route, each knee was injected with 1 ml of the preparation, containing approximately 10 mg of the tetrapeptide . […] Walking about with the use of a wheeled walker at that time, the subject experienced knee pain, but at a level distinctly lower than earlier days before the injection. This degree of substantially diminished knee pain continued for an additional 16 hours when the return of pain was detected (3+ effect).

[10] = test system: painful tendonitis; assay: Example 50: topical treatment of painful tendonitis of right wrist and right thumb; conditions: 1% (w/v) in WEP442, topical
Source text: A subject with painful tendonitis after playing tennis topically applied a composition containing 1% (w/v) of N-Pg-Tyr-Pro-Phe-Phe-NH2 (SEQ ID NO: 44) in WEP442 to the right thumb and to the entire wrist.

[11] = 0.5% (w/v) in EP73, multiple repeated topical applications
[12] = 0.7% (w/v) in EP73, first topical application
[13] = 0.7% (w/v) in EP73, second application

## CC(=O)N[C@@H](Cc1ccc(O)cc1)C(=O)N1CCC[C@H]1C(=O)N[C@@H](Cc1ccccc1)C(=O)N[C@@H](Cc1ccccc1)C(N)=O [N-Ac-Tyr-Pro-Phe-Phe-NH2]
[1]; [11]
  duration of pain relief: up to 6 hours
  relief of pain according to clinical evaluation: 4+ (4+ (90-100%): complete relief or eradication of pain for more than 4 hours)
[1]; 0.5% (w/v) in EP73, topical
  pain relief: pain disappeared completely
  time to pain relief: Within about a minute
[1]; 0.5% (w/v) in EP73, topical, first application
  duration of pain relief: up to 1 hour
[2]; 0.7% (w/v) in EP73, re-applied under plastic film wrap for 2 hours
  improvement by clinical evaluation: 100%
[2]; 0.7% (w/v) in EP73, topical before bedtime, next morning
  relief of pain: about 70%
[3]
  duration of lowered degree of pain: about 7 hours
[3]; after 4 hours
  pain in both knees and the lower back: diminished to very low level
[3]; over the next 2 hours
  pain in both knees and the lower back: diminished substantially
[4]; 0.7% (w/v) in EP73, application next morning, within about 5 minutes
  pain relief: no discomfort was discernible
[4]; [12]
  pain relief: relieved almost completely
  time to pain relief: 3 to 4 min
[4]; [13]
  pain relief: complete relief of all discomfort
  time to pain relief: ≤ 5 min
[5]; 1% (w/v) in WEP442, topical
  time to pain relief: less than 1 minute
[5]; 1% (w/v) in WEP442, topical to facial-lower jaw skin
  pain relief: complete relief of pain
[6]
  pain relief: completely relieved the pain
  recurrence: did not return
  time to pain relief: ≤ 1 min
[7]
  pain relief: completely relieved the headache
  time to pain relief: ≤ 2 min
[8]; 0.8% (w/v) in WEP442, after 1 week, one application every 12 hours
  pain relief: complete relief of pain was continually sustained
[8]; 0.8% (w/v) in WEP442, one topical application, within 20 minutes
  pain relief: a degree of improvement of pain
[8]; 0.8% (w/v) in WEP442, second application, within another 20 minutes
  pain relief: almost complete relief
[9]
  analgesic effect grade: 3+ (3+ (75%): complete relief of pain for less than 4 hours)
  discomfort from the injection: Mild discomfort from the injection
[9]; after the first 24 hours
  additional duration of substantially diminished knee pain: 16 h
[9]; over the ensuing 24 hours
  knee pain: the knee pain gradually diminished

## N-Pg-Tyr-Pro-Phe-Phe-NH2 ([pGlu]YPFF-NH2; SMILES NC(=O)[C@H](Cc1ccccc1)NC(=O)[C@H](Cc1ccccc1)NC(=O)[C@@H]1CCCN1C(=O)[C@H](Cc1ccc(O)cc1)NC(=O)[C@@H]1CCC(=O)N1)
[10]
  pain relief: all pain and discomfort from any hand movements were gone
  time to pain relief: 5 to 10 min
  time without return of pain (follow up period): ≥ 24 h

From patent publication US20190248834A1, “ENDOMORPHIN-2, TETRAPEPTIDE DERIVATIVES THEREOF, AND USES THEREOF” (priority 2016, published 2019)
